{"source": "patent US10272083B2", "about": "“Methods of treating chronic lymphocytic leukemia and small lymphocytic leukemia using a BTK inhibitor” (Acerta Pharma B.V., priority 2014, dated 2019)", "key": {"[1]": {"tested_on": "human platelet-mediated thrombus formation", "test": "In vivo human thrombus formation, laser injury, VWF HA1 mice model", "conditions": "platelets preincubated with BTK inhibitor (0.1, 0.5 or 1 μM)"}, "[2]": {"tested_on": "BCR activation markers CD69 and CD86", "test": "In vivo potency: IgM-stimulated BCR activation markers by flow cytometry", "conditions": "mice gavaged, 3 h post-dose, BCR stimulated with IgM", "experimental": "Mice were gavaged at increasing drug concentration and sacrificed at one time point (3 h post-dose). BCR is stimulated with IgM and the expression of activation markers CD69 and CD86 are monitored by flow cytometry to determine EC50's.\nCD86 and CD69 are cell surface proteins that are BCR activation markers. […] BCR was stimulated with IgM and the expression of activation marker CD69 and CD86 are monitored by flow cytometry and to determine EC50 values."}, "[3]": {"tested_on": "canine spontaneous B-cell lymphoma", "test": "Study of canine spontaneous B-cell lymphoma", "type": "in vivo, dogs", "conditions": "2.5 mg/kg once daily oral", "source_text": "Formula (II) is currently being evaluated in an ongoing study of canine spontaneous B-cell lymphoma. […] To date, partial remission (PR), per Veterinary Cooperative Oncology Group criteria for assessment of response in peripheral nodal lymphoma, has been observed in 2 of 6 dogs. D. M. Vali, et al., Vet. Comp. Oncol. 8, 28-37 (2010). […] L. A. Honigberg, et al., Proc. Nat. Acad. Sci. USA, 107, 13075-13080 (2010)."}, "[4]": {"tested_on": "80 known pharmacologic targets such as G-protein-coupled receptors, nuclear receptors, proteases, and ion channels", "test": "Binding assays with 80 known pharmacologic targets", "conditions": "screened at 10 μM"}, "EGFR phosphorylation": {"tested_on": "EGFR phosphorylation", "test": "In vitro EGFR phosphorylation in A431 cells", "type": "cell-based", "conditions": "10 μM, A431 human epidermoid cancer cell line"}, "[5]": {"test": "GLP functional observation battery in rats", "type": "in vivo", "conditions": "doses through 300 mg/kg", "source_text": "(§1) Formula (II) was well tolerated in standard in vivo Good Laboratory Practices (GLP) studies of pharmacologic safety."}, "[6]": {"test": "Study of respiratory function in rats", "type": "in vivo", "conditions": "doses through 300 mg/kg", "source_text": "as §1"}, "[7]": {"test": "Cardiovascular function study in awake telemeterized beagle dogs", "type": "in vivo", "conditions": "male beagle dogs, single doses through 30 mg/kg", "source_text": "as §1"}, "CYP3A4": {"target": "CYP3A4 (Homo sapiens, UniProt P08684)", "sequence (P08684 whole entry)": "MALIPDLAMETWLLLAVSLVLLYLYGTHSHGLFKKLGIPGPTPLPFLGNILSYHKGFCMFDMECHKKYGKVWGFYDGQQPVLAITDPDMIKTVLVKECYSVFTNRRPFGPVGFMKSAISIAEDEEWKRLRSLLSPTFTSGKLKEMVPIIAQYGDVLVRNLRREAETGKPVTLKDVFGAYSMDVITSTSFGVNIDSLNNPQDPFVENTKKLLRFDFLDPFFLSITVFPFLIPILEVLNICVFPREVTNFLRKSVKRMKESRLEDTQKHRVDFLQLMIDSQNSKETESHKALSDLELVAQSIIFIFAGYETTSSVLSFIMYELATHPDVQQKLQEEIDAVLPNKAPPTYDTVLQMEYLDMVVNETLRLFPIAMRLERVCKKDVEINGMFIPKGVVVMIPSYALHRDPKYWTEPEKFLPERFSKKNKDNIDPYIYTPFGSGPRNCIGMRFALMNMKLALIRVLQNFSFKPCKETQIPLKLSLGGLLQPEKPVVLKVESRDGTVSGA", "test": "In vitro loss of parent drug as catalyzed by CYPs", "type": "in vitro ADME"}, "[8]": {"test": "In vitro metabolism in hepatocytes with 14C-labeled compound", "type": "in vitro ADME, mouse, rat, dog, rabbit, monkey, and human"}, "[9]": {"test": "Preliminary evaluation of metabolism in plasma, bile and urine", "type": "in vivo", "conditions": "bile, urine of rats, dogs, monkeys"}, "[10]": {"test": "Glutathione binding and depletion in vitro"}, "CYP enzymes": {"tested_on": "CYP enzymes", "test": "Nonclinical CYP interaction studies", "type": "in vitro ADME"}, "[11]": {"tested_on": "NK cells and monocytic MDSC subsets", "test": "Flow cytometry of peripheral blood cell subsets in CLL patients", "type": "in vivo, human", "conditions": "patients with falling ALC counts, 28 days of dosing", "experimental": "PBMCs were stained with monoclonal antibodies conjugated to fluorescent tags (flourochromes) to identify cell subsets via flow cytometry. Non-viable cells were excluded from the analysis using the dye 7-aminoactinomycin D (7-AAD). To produce the metric of percent change, the following steps were taken. First, each cell subset was defined by hierarchical flow cytometry gating. Then, the change in frequency (between day 1 and day 28) was calculated for each cell subset. MDSC subsets were measured as a % of all myeloid cells. T cell subsets were measured as a % of all CD3^+ cells, and NK cells were measured as a % of all live CD45^+ cells. […] A cycle is 28 days. A trend is observed wherein patients with decreasing ALC % had increasing MDSC (monocytic) %. This may include patients who had quickly resolving lymphocytosis and those with no initial lymphocytosis. […] This may include patients who had quickly resolving lymphocytosis and those having no initial lymphocytosis. The effects in FIG. 9 to FIG. 12 are observed in multiple cohorts, at doses including 100 mg BID, 200 mg QD, and 400 mg QD. In FIG. 13 and FIG. 14, the effects on NK cells and MDSC cells are compared to a number of other markers versus % change in ALC at C1D28 and C2D28. These other markers include CD4+ T cells, CD8+ T cells, CD4+/CD8+ T cell ratio, NK-T cells, PD-1+CD4+ T cells, and PD-1+CD8+ T cells. […]"}, "[12]": {"tested_on": "platelet collagen receptor glycoprotein VI (GPVI)", "test": "GPVI (convulxin-induced) platelet aggregation", "type": "cell-based, human", "conditions": "for inhibition of GPVI platelet aggregation: FIG. 16 and FIG. 17", "experimental": "GPVI platelet aggregation was measured for Formula (II) and ibrutinib. Blood was obtained from untreated humans, and platelets were purified from […] by centrifugation. Cells were resuspended to a final concentration of 350,000/μL in buffer containing 145 mmol/L NaCl, 10 mmol/L HEPES, 0.5 mmol/L Na2HPO4, 5 mmol/L KCl, 2 mmol/L MgCl2, 1 mmol/L CaCl2, and 0.1% glucose, at pH 7.4. Stock solutions of […] were prepared on the day of experimentation and added to platelet suspensions 5 minutes (37° C., 1200 rpm) before the induction of aggregation. Aggregation was assessed with a Chronolog Lumi-Aggregometer (model 540 VS; Chronolog, Havertown, Pa.) and permitted to proceed for 6 minutes after the addition of agonist. The results are reported as maximum percent change in light transmittance from baseline with platelet buffer used as a reference.\nIn FIG. 17, the results of CVX-induced (250 ng/mL) human platelet aggregation results before and 15 minutes after administration of the BTK inhibitors to 6 healthy individuals are shown."}, "NK cells": {"tested_on": "NK cells", "test": "Antibody-dependent NK cell degranulation, CD107a flow cytometry", "type": "cell-based, human", "conditions": "rituximab-coated DHL-4 target cells"}, "Th17 cells": {"tested_on": "Th17 cells", "test": "CD4+ T cell skewing culture, Th17", "type": "cell-based", "conditions": "FIG. 24", "experimental": "(§2) Enriched CD4^+ T cells are plated on 24-well culture dishes that have been precoated 2 hr with 250 μL anti-TCRP3 (0.5 μg/mL) plus anti-CD28 (5 μg/mL) at 37° C. in PBS. The cells are then supplemented with media containing BTK inhibitors along with the skewing cytokines as indicated in the following. The Th17 and Treg cultures are grown for 4 days before analysis. The cells are maintained for an additional 3 days with skewing cytokines (Th17; 20 ng/mL IL-6, 0.5 ng/mL TGF-β, […] Treg; 0.5 ng/mL TGF-β, 5 μg/mL IL-4, 5 μg/mL IFN-γ) and are supplemented with IL2 as a growth factor."}, "[13]": {"tested_on": "regulatory T cell (Treg) development", "test": "CD4+ T cell skewing culture, Treg", "type": "cell-based", "conditions": "FIG. 25", "experimental": "as §2"}, "Raji cells": {"tested_on": "Raji cells", "test": "Rituximab ADCC 51Cr release, healthy donor NK cells vs Raji cells", "type": "cell-based, human", "conditions": "1 μM, E:T 25:1"}, "[14]": {"tested_on": "canine spontaneous B-cell lymphoma", "conditions": "out of 8 dogs treated; Honigberg et al. 2010; cited from earlier work"}, "[15]": {"conditions": "within the tested dose range; cited from earlier work"}}, "note": "“Also recorded” adds a separate entry of the source.", "data": [{"smiles": "C=CC(=O)Nc1cccc(Nc2nc(Nc3ccc(OCCOC)cc3)ncc2F)c1", "note": "[CC-292, N-(3-((5-fluoro-2-((4-(2-methoxyethoxy)phenyl)amino)pyrimidin-4-yl)amino)phenyl)acrylamide, reference compound]", "values": [{"measurement": "effect on human platelet-mediated thrombus formation", "setting": "[1]", "result": "effect similar to ibrutinib"}]}, {"smiles": "CC#CC(=O)N1CCC[C@H]1c1nc(-c2ccc(C(=O)Nc3ccccn3)cc2)c2c(N)nccn12", "note": "[Formula (II), (S)-4-(8-amino-3-(1-(but-2-ynoyl)pyrrolidin-2-yl)imidazo[1,5-a]pyrazin-1-yl)-N-(pyridin-2-yl)benzamide]", "values": [{"measurement": "in vivo potency at inhibiting expression of activation markers CD69 and CD86", "setting": "[2]", "result": "more potent at inhibiting expression of activation makers than ibrutinib"}, {"measurement": "drug-related adverse events", "setting": "[3]", "result": "No drug-related adverse events"}, {"measurement": "partial remission (PR)", "setting": "[3]; average 22 days, preliminary", "result": "2 of 6"}, {"measurement": "activity in binding screen of 80 targets", "setting": "[4]", "result": "significant activity only against the A3 adenosine receptor"}, {"measurement": "inhibition of in vitro EGFR phosphorylation", "setting": "EGFR phosphorylation", "result": "no inhibition"}, {"measurement": "neurobehavioral effects or body temperature", "setting": "[5]", "result": "no adverse effects"}, {"measurement": "respiratory function", "setting": "[6]", "result": "no treatment-related adverse effects"}, {"measurement": "body temperature, cardiovascular, or ECG (including QT interval) parameters", "setting": "[7]", "result": "no meaningful changes"}, {"measurement": "CYP responsible for metabolism", "setting": "CYP3A4", "result": "metabolized by CYP3A4"}, {"measurement": "unique human metabolite", "setting": "[8]; hepatocytes", "result": "No unique human metabolite was identified"}, {"measurement": "metabolites in hepatocytes", "setting": "[8]; mouse, rat, dog, rabbit, monkey, human hepatocytes", "result": "two mono-oxidized metabolites and a glutathione conjugate"}, {"measurement": "metabolic processes", "setting": "[9]", "result": "oxidation, glutathione binding, and hydrolysis"}, {"measurement": "glutathione binding / depletion", "setting": "[10]", "result": "binds to glutathione but does not deplete glutathione"}, {"measurement": "drug-drug interaction potential via CYP enzymes", "setting": "CYP enzymes", "result": "very unlikely to cause clinical drug-drug interactions"}, {"measurement": "frequency of NK cells and monocytic MDSC subsets in peripheral blood", "setting": "[11]", "result": "increase in frequency in the peripheral blood"}, {"measurement": "effect on human platelet-mediated thrombus formation", "setting": "[1]", "result": "no significant effect"}, {"measurement": "inhibition of GPVI platelet aggregation", "setting": "[12]", "result": "does not"}, {"measurement": "IC50", "setting": "[12]; Homo sapiens, Platelet, FIG. 16", "result": 1150, "unit": "nM"}, {"measurement": "reduction of rituximab-stimulated NK cell degranulation", "setting": "NK cells", "result": "< 2", "unit": "%"}, {"measurement": "effect on Th17 cells", "setting": "Th17 cells", "result": "no adverse effect"}, {"measurement": "effect on Treg development", "setting": "[13]", "result": "no adverse effects; also recorded: no effect"}, {"measurement": "Grade of Diarrhea", "setting": "relapsed/refractory CLL; All (N = 44)", "result": 1}, {"measurement": "Grade of Headache", "setting": "relapsed/refractory CLL; All (N = 44)", "result": "½"}, {"measurement": "Grade of Increased tendency to bruise", "setting": "relapsed/refractory CLL; All (N = 44)", "result": 1}, {"measurement": "Grade of Petechiae", "setting": "relapsed/refractory CLL; All (N = 44)", "result": 1}, {"measurement": "Treatment-related adverse event: Diarrhea", "setting": "relapsed/refractory CLL; All (N = 44)", "result": "4 (9) n (%)"}, {"measurement": "Treatment-related adverse event: Headache", "setting": "relapsed/refractory CLL; All (N = 44)", "result": "7 (16) n (%)"}, {"measurement": "Treatment-related adverse event: Increased tendency to bruise", "setting": "relapsed/refractory CLL; All (N = 44)", "result": "6 (14) n (%)"}, {"measurement": "Treatment-related adverse event: Petechiae", "setting": "relapsed/refractory CLL; All (N = 44)", "result": "3 (7) n (%)"}, {"measurement": "progression-free survival (PFS) in comparison to ibrutinib", "setting": "relapsed/refractory CLL; Kaplan-Meier, Log-Rank p-value 0.0206", "result": "An improvement in survival and a reduction in risk"}, {"measurement": "MTD", "setting": "relapsed/refractory CLL; relapsed/refractory CLL", "result": "not reached"}, {"measurement": "dose-limiting toxicities (DLTs)", "setting": "relapsed/refractory CLL; relapsed/refractory CLL", "result": "No DLTs were observed"}, {"measurement": "grade of AEs observed", "setting": "relapsed/refractory CLL; relapsed/refractory CLL", "result": "only grade 1 AEs were observed"}, {"measurement": "lymphocytosis", "setting": "relapsed/refractory CLL; relapsed/refractory CLL", "result": "A lack of lymphocytosis"}, {"measurement": "treatment-related serious adverse events (SAEs)", "setting": "relapsed/refractory CLL; relapsed/refractory CLL", "result": "No treatment-related serious adverse events (SAEs) were observed"}, {"measurement": "progression in patients with 17p deletion", "setting": "relapsed/refractory CLL; to date", "result": "no 17p patients have progressed"}]}, {"smiles": "C=CC(=O)N1CCC[C@@H](n2nc(-c3ccc(Oc4ccccc4)cc3)c3c(N)ncnc32)C1", "note": "[Ibrutinib, 1-[(3R)-3-[4-amino-3-(4-phenoxyphenyl)-1H-pyrazolo[3,4-d]pyrimidin-1-yl]piperidin-1-yl]prop-2-en-1-one, reference compound]", "values": [{"measurement": "inhibition of GPVI platelet aggregation", "setting": "[12]", "result": "significantly inhibits GPVI platelet aggregation"}, {"measurement": "effect on rituximab-mediated ADCC against Raji cells", "setting": "Raji cells", "result": "strongly inhibited"}, {"measurement": "effect on Th17 cells", "setting": "Th17 cells", "result": "profound inhibition of Th17 cells; also recorded: strongly inhibits Th17 cells"}, {"measurement": "effect on Treg development", "setting": "[13]", "result": "increase in Treg development; also recorded: strongly increases Treg development"}, {"measurement": "dogs with PR", "setting": "[14]", "result": 3, "unit": "dogs"}, {"measurement": "maximum tolerated dose (MTD)", "setting": "[15]", "result": "No maximum tolerated dose (MTD) was apparent"}]}]}
